Results as given in patent EP2108954A1, “A test system for detecting intracellular cyclic nucleotide level and methods and uses thereof” (Max-Planck-Gesellschaft zur Förderung der Wissenschaften …, priority 2008, dated 2009).
Where “and” joins values, the source holds several entries; their conditions need not be identical. Identical values can stand only once.

Key:
[1] = molecular target: T1, Or83b (Drosophila melanogaster, UniProt Q9VNB5); test: Whole-cell patch-clamp of HEK293 cells expressing Or83b alone; type: cell-based; set-up: expressed in transfected cells; host or cells: HEK293
T1 sequence (Q9VNB5 1-486): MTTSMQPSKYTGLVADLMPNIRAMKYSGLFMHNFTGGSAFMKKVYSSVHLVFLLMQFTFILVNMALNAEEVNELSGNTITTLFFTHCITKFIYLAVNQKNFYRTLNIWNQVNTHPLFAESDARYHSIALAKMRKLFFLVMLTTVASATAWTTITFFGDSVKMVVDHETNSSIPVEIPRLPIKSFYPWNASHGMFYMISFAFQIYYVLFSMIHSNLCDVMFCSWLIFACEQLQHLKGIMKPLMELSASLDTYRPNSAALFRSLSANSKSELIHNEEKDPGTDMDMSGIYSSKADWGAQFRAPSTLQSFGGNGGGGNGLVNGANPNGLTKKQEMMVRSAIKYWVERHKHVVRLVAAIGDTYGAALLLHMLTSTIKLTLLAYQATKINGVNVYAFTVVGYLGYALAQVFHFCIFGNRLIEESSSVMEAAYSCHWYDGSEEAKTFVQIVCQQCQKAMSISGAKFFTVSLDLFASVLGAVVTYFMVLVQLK
Experimental: (§1) In some experiments we transfected cells with pcDNA3-DOR22a-GFP or pcDNA3-DOR83b-GFP alone. We also examined the properties of DOR47a, which was cloned, using standard molecular biology methods into a pcDNA3.1(-) expression vector. To test for putative G-protein coupling, cells were transfected with the respective OR-DNA together with 1.5 µg hHCN2/pcDNA3 (provided by M. Biel, Munich, Germany), with 1 µg hKCNQ4/pcDNA3.1 or with 1 µg hCNGA2/pCMV6-XL4 (Origene, Rockville, MD, USA).
(§2) In brief, ion currents in HEK293 cells were measured at room temperature using whole-cell patch-clamp with appropriate compensation of series resistance and of capacitive currents. Additional experiments were performed in the outside-out configuration. Current measurements and data acquisition were performed using an EPC9 patch-clamp amplifier controlled by PatchMaster software (both HEKA Elektronik, Lambrecht, Germany). Patch-clamp pipettes were fabricated from borosilicate capillaries. Pipettes for whole-cell recordings had resistances of 2-4 MΩ for excised-patch recordings the pipette resistance was up to 15 MΩ.
(§3) To differentiate between ionotropic and metabotropic pathways of receptor activation (Fig. 2a-d) the pipette solution contained either 2 mM ATP plus 2 mM GTP or 2 mM ADP plus 2 mM GDP (both for whole-cell and outside-out configuration). For the preparation of Cl^--free solutions the chloride salts were substituted by gluconate salts. The pipette Cs^+ solution contained (in mM) 140 CsCl, 1 Mg-ATP, 10 EGTA, 10 HEPES (pH = 7.3), and the Cs^+ bath solution contained (in mM) 140 CsCl, 15 glucose, 15 HEPES (pH = 7.4). The Ca^2+-free bath solution contained (in mM) 140 NaCl, 15 glucose, 15 HEPES, and the Na^+-free bath solution contained (in mM) 140 NMDG-Cl, 10 CaCl2, 10 glucose, 15 HEPES.
(§4) With the exception of GDP-γ-S, which was applied via the patch pipette, all substances were applied to the bath using either a bath perfusion system (BPS4 from ALA, New York, USA) or a rapid solution changer (RSC160 from Biologic, Claix, France) which were controlled by the PatchMaster software (HEKA Elektronik).

[2] = molecular target: T2, Or47a and Or83b (Drosophila melanogaster, UniProt P81921+Q9VNB5); test: Whole-cell patch-clamp of HEK293 cells expressing Or47a and Or83b; type: cell-based; settings: 100 µM; -100 mV (Fig. 7)
T2 construct: expressed in transfected cells; host or cells: HEK293
T2 sequence (P81921 1-385): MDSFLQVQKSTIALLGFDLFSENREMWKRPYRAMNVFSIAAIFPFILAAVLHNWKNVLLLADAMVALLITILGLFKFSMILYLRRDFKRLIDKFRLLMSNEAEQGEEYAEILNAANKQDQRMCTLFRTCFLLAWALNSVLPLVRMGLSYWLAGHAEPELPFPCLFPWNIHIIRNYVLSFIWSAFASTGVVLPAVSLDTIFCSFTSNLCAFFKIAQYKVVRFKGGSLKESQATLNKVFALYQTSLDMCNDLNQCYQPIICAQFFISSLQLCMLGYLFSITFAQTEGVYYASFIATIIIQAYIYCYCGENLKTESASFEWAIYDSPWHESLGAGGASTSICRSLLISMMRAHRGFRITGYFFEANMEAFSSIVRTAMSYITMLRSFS
T2 sequence (Q9VNB5 1-486): T1 sequence (Q9VNB5 1-486)
Experimental: as §1, §2

[3] = molecular target: T1, Or83b; test: Calcium imaging (fura-2) in HEK293 cells expressing Or83b; type: cell-based; set-up: expressed in transfected cells; host or cells: HEK293; settings: cell expressing Or83b (Fig. 6e)
Experimental: Free intracellular Ca^2+ concentration ([Ca^2+]i) was determined by fura-2 fluorescence as described (Messutat et al., Cell Calcium 30, 199-211. (2001)). In brief, cells were loaded with fura-2 by incubation in bath solution containing 2 µM fura-2/acetomethylester for 20 min. Free intracellular Ca^2+ concentration ([Ca^2+]i) was determined with the fluorescence ratio method. Excitation of fura-2 at 340 and 380 nm was performed with a monochromator (Polychrome II, T.I.L.L. Photonics, Gräfelfing, Germany) coupled via an epifluorescence condenser into an Axioskop FS microscope (Carl Zeiss, Jena, Germany) with a water immersion objective (LUMPFL 40xW/IR/0.8; Olympus, Hamburg, Germany). […] [Ca^2+]i was calculated according to the equation [Ca^(2 +)]i = Keff (R-Rmin)/(Rmax-R). […] Keff, Rmin, and Rmax were determined using HEK293 cells permeabilized with 2 µM ionomycin and three solutions with different concentrations of free Ca^2+ (Ca^2+ free; 5 mM Ca^2+; 500 nM Ca^2+; the composition of the 500 nM solution was calculated with WEBMAXC v.2.20) (Patton et al., Cell Calcium 35, 427-31 (2004)). […]
Fluorescence images were acquired using a cooled CCD camera controlled by TILLVision 4.0 software (T.I.L.L. Photonics). […] Image pairs were obtained by excitation for 100 ms at 340 nm and 380 nm; background fluorescence was subtracted.

[4] = molecular target: T3, Or22a and Or83b (Drosophila melanogaster, UniProt P81909+Q9VNB5); test: Whole-cell patch-clamp of currents in HEK293 cells coexpressing Or22a and Or83b; type: cell-based; settings: absence of Etb; 10 µM benzaldehyde; n = 6
T3 construct: expressed in transfected cells; host or cells: HEK293
T3 sequence (P81909 1-397): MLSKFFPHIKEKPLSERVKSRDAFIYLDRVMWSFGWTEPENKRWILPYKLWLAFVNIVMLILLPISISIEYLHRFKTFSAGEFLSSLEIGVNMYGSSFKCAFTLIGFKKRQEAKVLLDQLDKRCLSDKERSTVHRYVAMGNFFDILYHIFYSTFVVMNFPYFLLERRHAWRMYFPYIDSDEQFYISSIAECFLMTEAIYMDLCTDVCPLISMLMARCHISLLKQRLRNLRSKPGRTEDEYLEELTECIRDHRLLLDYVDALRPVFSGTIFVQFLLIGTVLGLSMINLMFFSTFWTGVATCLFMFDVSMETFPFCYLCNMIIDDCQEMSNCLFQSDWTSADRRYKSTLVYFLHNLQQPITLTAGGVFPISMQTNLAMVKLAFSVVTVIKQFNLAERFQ
T3 sequence (Q9VNB5 1-486): T1 sequence (Q9VNB5 1-486)
Experimental: as §1, §2, §3, §4

[5] = test system: modified cyclic nucleotide-gated ion channels; settings: US 07166463 and US 07341836; cited from earlier work
[6] = molecular target: T1, Or83b; test: cell-based; settings: -60 mV, n = 10
Experimental: For this, HEK293 cells were cultured at a density of ∼2*10^4 per 35-mm dish and transfected with 1 µg pcDNA3-DOR83b-GFP (Neuhaus et al., Nat Neurosci 8: 15-17, 2005.) using Roti-Fect transfection kit (Roth, Karlsruhe, Germany). For electrophysiological experiments we only used cells showing GFP fluorescence (when illuminated at 470 nm) as indicator of putative OR expression.
For electrophysiological studies, ion currents in HEK293 cells were measured at room temperature in the inside-out configuration. Current measurements and data acquisition were performed using an EPC9 patch-clamp amplifier controlled by PatchMaster software (both HEKA Elektronik, Lambrecht, Germany). Patch-clamp pipettes were fabricated from borosilicate capillaries. Pipettes for whole-cell recordings had resistances of up to 15 MΩ. The bath solution contained (in mM) 140 KCI, 4 NaCl, 2.2 CaCl2, 2 Mg-ATP, 0.05 Na-GTP, 5 EGTA, 10 HEPES (pH 7.3), and the pipette solution contained (in mM) 135 NaCl, 5 KCI, 1 CaCl2, 1 MgCl2, 10 HEPES, 10 glucose (pH 7.4).

[7] = molecular target: T4, vertebrate CNGA2 channel (Rattus norvegicus, UniProt Q00195); settings: Dhallan et al., Nature 347 (1990); cited from earlier work
T4 sequence (Q00195 1-664): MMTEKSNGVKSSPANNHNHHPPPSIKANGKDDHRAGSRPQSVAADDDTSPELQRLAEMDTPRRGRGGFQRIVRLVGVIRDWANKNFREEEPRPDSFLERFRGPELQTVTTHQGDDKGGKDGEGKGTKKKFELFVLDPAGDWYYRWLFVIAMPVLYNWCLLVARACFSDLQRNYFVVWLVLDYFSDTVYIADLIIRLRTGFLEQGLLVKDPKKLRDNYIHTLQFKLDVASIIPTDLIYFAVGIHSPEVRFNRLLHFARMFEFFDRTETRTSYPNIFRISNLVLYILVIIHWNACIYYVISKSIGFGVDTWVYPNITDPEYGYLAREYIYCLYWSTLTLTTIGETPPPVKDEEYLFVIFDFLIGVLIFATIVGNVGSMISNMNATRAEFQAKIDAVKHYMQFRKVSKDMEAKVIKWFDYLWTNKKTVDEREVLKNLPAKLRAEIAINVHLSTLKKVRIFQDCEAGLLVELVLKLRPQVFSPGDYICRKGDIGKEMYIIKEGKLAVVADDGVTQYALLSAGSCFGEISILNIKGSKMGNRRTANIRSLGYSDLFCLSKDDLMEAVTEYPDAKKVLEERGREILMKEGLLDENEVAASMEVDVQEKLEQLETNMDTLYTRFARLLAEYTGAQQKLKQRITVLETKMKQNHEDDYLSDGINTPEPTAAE

[8] = molecular target: Periplaneta adipokinetic hormone receptor (pAKHR) (Periplaneta); test: cell-based or functional assay

Molecule: Nc1nc2c(nc(Br)n2[C@@H]2O[C@@H]3COP(=O)(O)O[C@H]3[C@H]2O)c(=O)[nH]1 [8-bromo-cGMP]
- current elicited ([1]; Or83b-expressing HEK293 cells): elicited a current similar to that obtained upon 8-bromo-cAMP application
- agonist comparison for current activation ([1]; concentration-response relations, -100 mV (Fig. 6d)): significantly better agonist than 8-bromo-cAMP
- current response of cells [2]: responsive
- agonist comparison for the elevation of [Ca^2+]i [3]: significantly better agonist than 8-bromo-cAMP

Molecule: O=Cc1ccccc1 [Bea, benzaldehyde]
- effect on current recorded under control conditions [4]: reduced the current recorded under control conditions

Molecule: CCCCCCOC(=O)C1(O)CC2OC1(C)n1c3ccccc3c3c4c(c5c6ccccc6n2c5c31)C(=O)NC4 (stereo not drawn) [KT5720]
- effect of preincubation on ion currents elicited by 8-bromo-cAMP ([1]; 10 µM, n = 6): not significantly altered

Molecule: CCCCCOC(C)=O [PA, pentyl acetate]
- current response of cells [2]: responding

Molecule: Nc1ncnc2c1ncn2[C@@H]1O[C@@H]2COP(=O)(O)O[C@H]2[C@H]1O [cAMP, 3'-5'-cyclic adenosine monophosphate]
- EC50 [5]: 14.5 µM
- Hill coefficient of mean currents of inside-out patches [6]: 0.42
- EC50 ([6]; EC50 of mean currents of inside-out patches): 0.001 µM and 0.0011 µM

Molecule: Nc1nc2c(ncn2[C@@H]2O[C@@H]3COP(=O)(O)O[C@H]3[C@H]2O)c(=O)[nH]1 [cGMP, cyclic guanosine monophosphate]
- EC50 [7]: 1 µM

Molecule: adipokinetic hormone I (AKH I) (peptide)
- membrane current at -100 mV (whole-cell patch clamp, ramp protocol) in HEK293 cells coexpressing pAKHR and the cAMP-activated channel Or83b, after application of AKH I [8]: 294 pA
